{
  "source": "patent US20250367419A1",
  "about": "“DRUG DELIVERY SYSTEM COMPRISING AN AGENT EFFECTIVE IN THE TREATMENT OR PREVENTION OF AN ESOPHAGEAL DISEASE FOR THE APPLICATION TO ESOPHAGEAL MUCOUS MEMBRANES” (EsoCap AG, priority 2022, published 2025)",
  "type_in_all_cases": "physicochemical",
  "key": {"[1]": {"experiment": "HPLC analysis of paclitaxel content of the coated polymer film", "conditions": "API-loaded film sample compared with calibration sample", "method": "• 1. Preparation polymer mixture • 2. Preparation of film laminates • 3. Slitting of the moist laminates • 4. Coating of the moist laminates • 5. Drying at room temperature\nFurther, the film was analyzed for the content of paclitaxel. To this end, 5 circular samples with a size of 1 cm^2 were cut at random positions of the film and dissolved in Brij® L23-buffer/methanol (MeOH) for HPLC analysis with Hypersil ODS 150×4.6 mm as stationary phase and acetonitrile/phosphate buffer as mobile phase. The HPLC results are shown in FIG. 11 in comparison to a blank film sample and a calibration sample."}, "[2]": {"experiment": "Stability of RNA on the polymer film, 20% denaturing polyacrylamide gel", "method": "• 1. preparation “base polymer mixture” • 2. sterilization • 3. preparation of film laminates • 4. drying • 5. cutting (A=0.25 cm^2) • 6. application of RNA samples on the polymer film • 7. drying of the final samples • !points 3-7 under aseptic conditions!\nStability of RNA on the film was analyzed using a 20% denaturizing polyacrylamide (PAA) gel. The experiment was repeated with a commercially available siRNA.\nStability of RNA on the film was further analyzed before and after solubilization of the film."}, "[3]": {"experiment": "Stability of antisense BMP2 RNA on the film under various application and storage conditions, 20% denaturing polyacrylamide gel", "conditions": "for RNA degradation after storage of the dry film: 10 days of storage of the dry film at 4° C.", "method": "A film containing the antisense RNA for BMP2 was prepared as described in Example 2 except for using PVA 4-88 instead of PVA 18-88.\nThe stability of the antisense BMP2 RNA was analyzed under various application conditions as indicated in FIG. 16 and the legend of FIG. 16. 10 pmol of each probe was loaded on a 20% denaturing polyacrylamide gel. The gel was run for 3 hours at 140 volt and subsequently colored with SYBR gold for 20 minutes.\nThe stability of labeled antisense BMP2 RNA was analyzed in comparison to unlabeled antisense BMP2 RNA under various application conditions as indicated in FIG. 17 and the legend of FIG. 17. In lanes 1 to […], 5 pmol of the probe, in lanes 4 to 6, 10 pmol of each probe were loaded on a 20% denaturing polyacrylamide gel. The gel was run for 3 hours at 140 volt and subsequently colored with ethidium bromide for 30 minutes (FIG. 17a) or excited with light of a wavelength of 630 nm and emission was measured at 675 nm (FIG. 17b). The bands of labeled BMP2 RNA in FIG. 17b correspond to the band of the unlabeled BMP2 RNA in FIG. 17a Since the unlabeled BMP2 RNA has no fluorescent marker, the bands of unlabeled BMP2 RNA are not visible in FIG. 17b.\nThe stability of labeled antisense BMP2 RNA was analyzed in comparison to unlabeled antisense BMP2 RNA after storage of the dry film for 10 days at 4° C. Probes were loaded on a 20% denaturing polyacrylamide gel. The gel was run for 3 hours at 140 volt and subsequently colored with ethidium bromide for 30 minutes (FIG. 18b) or excited with light of a wavelength of 630 nm and emission was measured at 675 nm (FIG. 18a). The bands of labeled BMP2 RNA in FIG. 18a correspond to the band of the unlabeled BMP2 RNA in FIG. 18b."}},
  "note": "Entries after “also recorded” stand apart in the source; their conditions may differ. r = 2'-OH (RNA)",
  "data": [
    {"molecule": "CC(=O)O[C@H]1C(=O)[C@@]2(C)[C@H]([C@H](OC(=O)c3ccccc3)[C@]3(O)C[C@H](OC(=O)[C@H](O)[C@@H](NC(=O)c4ccccc4)c4ccccc4)C(C)=C1C3(C)C)[C@]1(OC(C)=O)CO[C@@H]1C[C@@H]2O", "note": "[paclitaxel, (2α,4α,5β,7β,10β,13α)-4,10-Bis(acetyloxy)-13-{[(2R,3S)-3-(benzoylamino)-2-hydroxy-3-phenylpropanoyl]oxy}-1,7-dihydroxy-9-oxo-5,20-epoxytax-11-en-2-yl-benzoat]", "values": [
      {"measurement": "stability of paclitaxel prepared in a film", "setting": "[1]", "result": "can be stably prepared in a film"}
    ]},
    {"molecule": "5′ UGCGCAGAAUGAGAUGAGUUG 3′ (UGCGCAGAAUGAGAUGAGUUG; listed as RNA, chemistry not given here)", "values": [
      {"measurement": "influence of the film on RNA stability", "setting": "[2]; RNA applied on PVA 18-88 film, 20% denaturing PAA gel", "result": "no influence on the stability"},
      {"measurement": "storage stability of RNA on the dry film", "setting": "[2]; dried samples on the film, 4 days at 4° C.", "result": "no influence on RNA stability"}
    ]},
    {"molecule": "5′-AUU UCG AGU UGG CUG UUG C-3′ (antisense AUUUCGAGUUGGCUGUUGC; RNA, 3' rUrU, backbone not given here) [BMP2 RNA, antisense strand of BMP2-siRNA 2]", "values": [
      {"measurement": "RNA degradation after storage of the dry film", "setting": "[3]", "result": "no RNA degradation could be observed"},
      {"measurement": "stability of RNA after application to the film", "setting": "[3]; PVA 4-88 film, various application conditions, compared with stock sample", "result": "no difference between the test sample and the stock sample; also recorded: not degraded by the film"}
    ]},
    {"molecule": "labeled BMP2 RNA: SEQ ID NO:23 antisense BMP2 RNA labeled with the dye Atto633 attached to the 3′ end (antisense AUUUCGAGUUGGCUGUUGC; listed as RNA, chemistry not fully specified)", "values": [
      {"measurement": "RNA degradation after storage of the dry film", "setting": "[3]", "result": "no RNA degradation could be observed"}
    ]}
  ]
}
